Source: patent publication US7399475B1, “Inactivated microorganisms comprising substances having pharmacological activity” (Toner Enterprise Inc., priority 1999, dated 2008)

Tests used:
[1] = known from the literature; cited from earlier work
[2] = Quantity of active agent incorporated in the yeast cells, released by hypertonic (osmotic) treatment and determined by HPLC; type: physicochemical, Saccharomyces cerevisiae; settings: batch not stated, column unlabelled
Protocol: The suspensions obtained as described above were tested in order to check the quantity of ascorbic acid that had accumulated in the cells.
Step IV)—The suspension obtained in Step III) was centrifuged at 4000 r.p.m. (1252 R.C.F.). The precipitated was washed twice (sample A) or thrice (sample B) with an isotonic solution of sodium chloride (0.9%) keeping it in suspension during each washing.
Step V)—The centrifugate was brought up to 80 g with the hypertonic solution (NaCl 2.0M) used for Step I). In order to complete the osmotic treatment, the suspension was kept under gentle stirring for 6 hours at 25° C.
Step VI)—The ascorbic acid present in each solution (mg/ml) and in the microorganism (mg/g) was determined by HPLC, by the use of the following formula: mg/g=Ac×Ps×fs×Ds×1000/As×Pc×Dc,
The suspension obtained as described above was tested in order to check the quantity of oxytetracycline that had accumulated in the cells.
Step IV)—The suspension obtained in Step II) was centrifuged at 4000 r.p.m. (1252 R.C.F.). The centrifugate was washed twice (A) or thrice (B) with an isotonic solution of sodium chloride (0.9%) keeping it in suspension for 10 minutes before centrifugation.
Step VI)—The oxytetracycline HCl present in each solution (mg/ml) and in the microorganism (mg/g) was determined by HPLC, by the use of the following formula: mg/g=Ac×Ps×fs×Ds×1000/As×Pc×Dc,
The suspension obtained as described above was tested in order to check the quantity of sodium sulphadimethoxine that had accumulated in the cells.
Step VI)—The sodium sulphadimethoxine present in each (mg/ml) and in the microorganism (mg/g) was determined by HPLC, by the use of the following formula: mg/g=Ac×Ps×fs×Ds×1000/As×Pc×Dc,
The suspension as previously obtained was tested to ascertain the quantity of sodium sulphadimethoxin that had accumulated in the cells.
Step IV)—For analytical reasons, the suspension obtained in Step III) was diluted with an isotonic solution of sodium sulphadimethoxin (5.17%) to 200 g. An aliquot of 80 g of suspension was taken. The suspension was centrifuged at 10 000 r.p.m., and the centrifugate was washed twice (A) or thrice (B) with an isotonic solution of sodium chloride (0.9%). The suspension was stirred for 10 minutes before each washing.
Step VI)—The sodium sulphadimethoxin present in solution (mg/ml) and in the microorganism (mg/g) was determined by HPLC, by the use of the following formula: mg/g=Ac×Ps×fs×Ds×1000/As×Pc×Dc,
The suspension obtained as described above was tested in order to check the quantity of ascorbic acid that had been loaded in the cells. […]
Step VI)—The ascorbic acid present in the washing solution (mg/ml) and in the microorganism (mg/g) was determined by HPLC, by the use of the following formula: mg/g=Ac×Ps×fs×Ds×1000/As×Pc×Dc, […]

[3] = Incorporated vitamins determined by HPLC after 5N HCl or NaOH 0.05N extraction of dried yeast; type: physicochemical, Saccharomyces cerevisiae; settings: Example 10, content in dried loaded yeast; for Incorporated vitamins (HCl extraction), Content: 5N HCl extraction; for Incorporated vitamins (NaOH extraction), Content: NaOH 0.05N extraction
Protocol: In this treatment yeast cells have been partially emptied by the hypertonic solution, comprising NaCl and Trisodium citrate bihydrate, as already described. Vitamins were then incorporated by incubation in a vitamins hypotonic solution (hypotonic=80% isotonicity). The quantity of vitamins loaded into the cells, was measured by HPLC. The suspension was then centrifuged and the centrifugates was washed twice with 560 g NaCl isotonic solution (0.9%). Step IV)-The centrifugate was air-dried at 45° C. for 36 hours. After mincing the dried pellets were sifted on a 400μ net. Step V)-The incorporated vitamins quantities were determined by HPLC af[…] HCl extraction for one hours at 25° C. under gentle stirring and after NaOH 0.05N extraction (one hours at 25° C. under gentle stirring). In this treatment yeast cells have been partially emptied by the hypertonic solution, comprising NaCl and Trisodium citrate bihydrate, as already described. α-tocopherol (vitamin E) was then incorporated by incubation in a vitamin hypotonic solution (hypotonic=80% isotonicity). The quantity of vitamin loaded into the cells, was measured HPLC. […] An aliquot of the solution (B), was then washed one more time with a NaCl isotonic solution Step IV)-The centrifugate was air-dried at 40° C. for 36 hours. The dried mass of cells was minced and then sifted on a 400μ net. Step V)-The incorporated vitamin quantities were determined by HPLC af[…] HCl extraction for one hour at 25° C. under gentle stirring.

Compound	Incorporated vitamins (HCl extraction), Content [3]	Incorporated vitamins (NaOH extraction), Content [3]	other results
O=C1O[C@H]([C@@H](O)CO)C(O)=C1O [Ascorbic acid, ascorbic acid]			thermostability of ascorbic acid as such [1]: easily denatured at much lower temperatures; Ascorbic acid final soln. ([2]; Example 5, Test 5NC): 0.16 mg/mL
cyanocobalamin	0.018 0/00 (mg/g)	0.014 0/00 (mg/g)	
COc1cc([N-]S(=O)(=O)c2ccc(N)cc2)nc(OC)n1.[Na+] [sulphadimetoxin, sodium sulphadimethoxine]			Sulphadimetoxin final soln. ([2]; Example 3, Test 4NS1): 0.075 mg/mL; Sulphadimetoxin final soln. ([2]; Example 4, Test 6NS1): 0.066 mg/mL
Cc1ncc(C[n+]2csc(CCO)c2C)c(N)n1 [Tiamine, thiamine]	3.787 0/00 (mg/g)	3.493 0/00 (mg/g)	
Nc1nc2ncc(CNc3ccc(C(=O)N[C@@H](CCC(=O)O)C(=O)O)cc3)nc2c(=O)[nH]1 [Folic Acid, folic acid]	0.203 0/00 (mg/g)	2.663 0/00 (mg/g)	
CN(C)[C@@H]1C(O)=C(C(N)=O)C(=O)[C@@]2(O)C(O)=C3C(=O)c4c(O)cccc4[C@@](C)(O)[C@H]3[C@H](O)[C@@H]12.Cl [Oxytetracyclin, oxytetracycline HCl]			Oxytetracyclin final soln. ([2]; Example 2, Test 3NO): 0.249 mg/mL
